{
  "source": "ChEMBL document CHEMBL5344410",
  "about": "“Design, development and evaluation of a prodrug-type TrkA-selective inhibitor with antinociceptive effects in vivo” (Eur J Med Chem, 2023)",
  "key": {"[1]": {"target": "T1, High affinity nerve growth factor receptor (Homo sapiens, UniProt P04629)", "test": "Inhibition of TRKA (unknown origin) using Kinase substrate 22 pre-incubated with compound for 10 mins followed by substrate and ATP addition measured after 30 mins by mobility shift assay based caliper reader analysis"}, "[2]": {"target": "NT-3 growth factor receptor (Homo sapiens, UniProt Q16288)", "sequence (Q16288 whole entry)": "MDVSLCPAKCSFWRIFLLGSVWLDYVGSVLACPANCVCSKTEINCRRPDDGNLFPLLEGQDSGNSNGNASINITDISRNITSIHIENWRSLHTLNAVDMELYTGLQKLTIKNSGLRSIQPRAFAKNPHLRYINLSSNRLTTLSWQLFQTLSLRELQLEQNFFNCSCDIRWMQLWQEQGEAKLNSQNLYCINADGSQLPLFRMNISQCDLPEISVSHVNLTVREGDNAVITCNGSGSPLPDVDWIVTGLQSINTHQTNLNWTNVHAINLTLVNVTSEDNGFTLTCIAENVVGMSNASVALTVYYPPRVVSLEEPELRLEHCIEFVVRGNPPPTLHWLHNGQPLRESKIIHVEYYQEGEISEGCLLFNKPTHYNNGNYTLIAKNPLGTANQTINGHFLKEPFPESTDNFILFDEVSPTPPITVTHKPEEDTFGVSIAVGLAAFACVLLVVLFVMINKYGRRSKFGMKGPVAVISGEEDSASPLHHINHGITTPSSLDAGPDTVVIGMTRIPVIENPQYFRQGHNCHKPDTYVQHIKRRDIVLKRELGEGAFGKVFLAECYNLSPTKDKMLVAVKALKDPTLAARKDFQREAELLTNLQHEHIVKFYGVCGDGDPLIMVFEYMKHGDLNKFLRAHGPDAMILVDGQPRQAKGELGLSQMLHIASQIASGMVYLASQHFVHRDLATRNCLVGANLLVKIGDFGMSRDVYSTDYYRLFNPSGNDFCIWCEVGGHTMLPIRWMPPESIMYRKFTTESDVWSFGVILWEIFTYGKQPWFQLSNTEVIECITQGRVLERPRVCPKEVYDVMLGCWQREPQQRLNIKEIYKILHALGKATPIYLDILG", "test": "Inhibition of TRKC (unknown origin) using Kinase substrate 22 pre-incubated with compound for 10 mins followed by substrate and ATP addition measured after 30 mins by mobility shift assay based caliper reader analysis"}, "[3]": {"tested_on": "Mus musculus", "test": "Antinociceptive activity in Kunming mouse assessed as reduction in nociceptive response at 100 mg/kg,IG administration and measured for 1 to 6 hrs by hot plate test", "format": "functional, organism-based", "conditions": "time 1-6 hrs"}, "[4]": {"target": "BDNF/NT-3 growth factors receptor (Homo sapiens, UniProt Q16620)", "sequence (Q16620 whole entry)": "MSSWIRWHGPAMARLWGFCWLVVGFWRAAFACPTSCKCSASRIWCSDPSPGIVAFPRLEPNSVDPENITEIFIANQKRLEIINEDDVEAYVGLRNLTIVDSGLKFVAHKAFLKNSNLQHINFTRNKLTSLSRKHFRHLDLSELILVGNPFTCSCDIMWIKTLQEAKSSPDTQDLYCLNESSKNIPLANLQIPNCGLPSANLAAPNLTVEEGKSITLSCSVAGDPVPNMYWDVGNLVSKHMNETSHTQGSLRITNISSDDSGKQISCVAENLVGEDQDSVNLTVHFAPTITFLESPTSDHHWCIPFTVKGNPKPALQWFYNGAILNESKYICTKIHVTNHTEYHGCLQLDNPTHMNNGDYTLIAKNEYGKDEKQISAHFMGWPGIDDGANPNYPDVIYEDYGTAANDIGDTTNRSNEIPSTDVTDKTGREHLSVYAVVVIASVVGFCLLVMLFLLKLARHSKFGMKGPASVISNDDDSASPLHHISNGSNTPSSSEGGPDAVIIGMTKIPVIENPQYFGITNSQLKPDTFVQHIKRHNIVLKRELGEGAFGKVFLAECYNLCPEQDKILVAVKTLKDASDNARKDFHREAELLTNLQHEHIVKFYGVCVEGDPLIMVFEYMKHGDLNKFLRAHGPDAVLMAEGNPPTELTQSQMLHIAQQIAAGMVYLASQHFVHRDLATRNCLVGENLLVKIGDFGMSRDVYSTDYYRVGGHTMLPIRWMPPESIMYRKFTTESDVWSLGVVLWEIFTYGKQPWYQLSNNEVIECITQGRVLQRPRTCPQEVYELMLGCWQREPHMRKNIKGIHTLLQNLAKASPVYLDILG", "test": "Inhibition of TRKB (unknown origin) using Kinase substrate 22 pre-incubated with compound for 10 mins followed by substrate and ATP addition measured after 30 mins by mobility shift assay based caliper reader analysis"}, "[5]": {"target": "T1, High affinity nerve growth factor receptor", "test": "Inhibition of human 6-His tagged TRKA expressed in Sf9 insect cells incubated for 2 hrs in presence of ATP by LanthaScreen based FRET assay relative to control", "conditions": "concentration not given here"}, "[6]": {"target": "T1, High affinity nerve growth factor receptor", "test": "Inhibition of human 6-His tagged TRKA expressed in Sf9 insect cells incubated for 2 hrs in presence of ATP by LanthaScreen based FRET assay"}, "[7]": {"tested_on": "Mus musculus", "test": "Antinociceptive activity in Kunming mouse assessed as reduction in nociceptive response at 40 mg/kg,IG administration and measured for 1 to 6 hrs by hot plate test", "format": "functional, organism-based", "conditions": "time 1-6 hrs"}, "[8]": {"tested_on": "Mus musculus", "test": "Antinociceptive activity in Kunming mouse assessed as reduction in nociceptive response at 40 mg/kg,IG administration and measured after 1 hr by hot plate test", "format": "functional", "set-up": "scale not given: the % may be the effect or the level left"}, "[9]": {"tested_on": "Mus musculus", "test": "Antinociceptive activity in ATP-induced Kunming mouse assessed as reduction in nociceptive response at 40 mg/kg,IG administration and measured after 1 hr by hot plate test", "format": "functional, organism-based"}, "[10]": {"test": "Drug metabolism in mouse hepatocyte assessed as 5-(3-(1-Methy1-1H-pyrazol-3-y1)-4-(trifluoromethyl)benzamido)-6-phenylnicotinic acid metabolite formation at 2 uM incubated for 30 mins by LC-MS/MS analysis", "format": "ADME, cell-based", "conditions": "hepatocytes, 0.5 h"}, "[11]": {"test": "Drug metabolism in mouse hepatocyte assessed as 5-(3-(1-Methyl-1H-pyrazol-3-y1)-4-(trifluoromethyl)benzamido)-6-phenybridirt-3-yldihydrogen phosphate metabolite formation at 2 uM incubated for 30 mins by LC-MS/MS analysis", "format": "ADME, cell-based", "conditions": "hepatocytes, 0.5 h"}, "[12]": {"test": "Drug metabolism in mouse hepatocyte assessed as N-(5-Hydroxy-2-phenylpyridin-3-y1)-3-(1-methyl-1H-pyrazol-3-y1)-4-(trifluoromethyl) benzamide metabolite formation at 2 uM incubated for 30 mins by LC-MS/MS analysis", "format": "ADME, cell-based", "conditions": "hepatocytes, 0.5 h"}, "[13]": {"tested_on": "Mus musculus", "test": "Antinociceptive activity in Kunming mouse assessed as reduction in nociceptive response at 40 mg/kg,IG administration and measured at 3 hrs by hot plate test", "format": "functional, organism-based"}, "[14]": {"tested_on": "Mus musculus", "test": "Antinociceptive activity in Kunming mouse assessed as reduction in nociceptive response by measuring effective dose at IG administration measured after 3 hr by hot plate test", "format": "functional", "conditions": "po"}, "[15]": {"tested_on": "Mus musculus", "test": "Antinociceptive activity in Kunming mouse assessed as reduction in nociceptive response at 8 mg/kg,IG administrated with TRKA activator, Amitriptyline and measured at 3 hrs by hot plate test", "format": "functional, organism-based"}, "[16]": {"test": "Drug uptake in Kunming mouse blood at 15 mg/kg,IG administration measured after 30 mins by LC-MS/MS analysis", "format": "ADME, organism-based", "conditions": "in vivo, po, 0.5 h"}, "[17]": {"test": "Drug metabolism in Kunming mouse blood assessed as 5-(3-(1-Methy1-1H-pyrazol3-yl)-4-(trifluoromethyl)benzamido)-6-phenylnicotinic acid metabolite formation at 15 mg/kg,IG administration measured after 1 hr by LC-MS/MS analysis", "format": "ADME, organism-based", "conditions": "in vivo, po"}, "[18]": {"tested_on": "Mus musculus", "test": "Antinociceptive activity in Kunming mouse assessed as reduction in nociceptive response at 15 mg/kg,IG administration and measured after 1 hr by hot plate test", "format": "functional, organism-based"}, "[19]": {"tested_on": "Mus musculus", "test": "Antinociceptive activity against formalin-induced pain in C57BL/6N mouse assessed as reduction in nociceptive response in phase I at IG administration for 1 hr followed by formalin challenge", "format": "functional, organism-based"}, "[20]": {"tested_on": "Mus musculus", "test": "Antinociceptive activity against formalin-induced pain in C57BL/6N mouse assessed as reduction in nociceptive response in phase II at IG administration for 1 hr followed by formalin challenge", "format": "functional, organism-based"}},
  "note": "Active and inactive are the calls of the source. The calls are words filed in the database; no cut-off is given here.",
  "data": [
    {"compound": "CC(=O)NCc1ncc(NC(=O)c2ccc(C(F)(F)F)c(-c3cn(C)cn3)c2)c(-c2ccccc2)n1", "values": [
      {"measurement": "IC50", "setting": "[1]", "result": 4, "unit": "nM"},
      {"measurement": "IC50", "setting": "[2]", "result": 760, "unit": "nM"}
    ]},
    {"compound": "CC(C)Cc1ccc(C(C)C(=O)O)cc1", "note": "(centres undefined)", "values": [
      {"measurement": "Activity", "setting": "[3]", "result": "Active"}
    ]},
    {"compound": "Cc1ncc(-c2ccccc2)c(NC(=O)NC2c3ccccc3-c3ccccc32)n1", "values": [
      {"measurement": "IC50", "setting": "[1]", "result": 99, "unit": "nM"},
      {"measurement": "IC50", "setting": "[4]", "result": "> 81000", "unit": "nM"},
      {"measurement": "IC50", "setting": "[2]", "result": 25000, "unit": "nM"},
      {"measurement": "inhibition", "setting": "[5]", "result": "> 70", "unit": "%"},
      {"measurement": "IC50", "setting": "[6]", "result": 99, "unit": "nM"}
    ]},
    {"compound": "Cn1ccc(-c2cc(C(=O)Nc3cc(C(=O)O)cnc3-c3ccccc3)ccc2C(F)(F)F)n1", "values": [
      {"measurement": "IC50", "setting": "[1]", "result": 22.4, "unit": "nM"},
      {"measurement": "IC50", "setting": "[4]", "result": 190000, "unit": "nM"},
      {"measurement": "IC50", "setting": "[2]", "result": 20200, "unit": "nM"}
    ]},
    {"compound": "CCOc1nn(-c2ccccc2)c(NC(=O)N[C@H]2CN(CCOC)C[C@@H]2c2ccc(F)c(F)c2)c1C", "values": [
      {"measurement": "IC50", "setting": "[1]", "result": 2.7, "unit": "nM"},
      {"measurement": "IC50", "setting": "[4]", "result": 1300, "unit": "nM"},
      {"measurement": "IC50", "setting": "[2]", "result": 2480, "unit": "nM"}
    ]},
    {"compound": "Cn1ccc(-c2cc(C(=O)Nc3cc(O)cnc3-c3ccccc3)ccc2C(F)(F)F)n1", "values": [
      {"measurement": "IC50", "setting": "[1]", "result": 70.4, "unit": "nM"},
      {"measurement": "IC50", "setting": "[4]", "result": "> 500000", "unit": "nM"},
      {"measurement": "IC50", "setting": "[2]", "result": "> 500000", "unit": "nM"}
    ]},
    {"compound": "Cn1ccc(-c2cc(C(=O)Nc3cc(OP(=O)(O)O)cnc3-c3ccccc3)ccc2C(F)(F)F)n1", "values": [
      {"measurement": "IC50", "setting": "[1]", "result": 798, "unit": "nM"},
      {"measurement": "IC50", "setting": "[4]", "result": "> 500000", "unit": "nM"},
      {"measurement": "IC50", "setting": "[2]", "result": "> 500000", "unit": "nM"}
    ]},
    {"compound": "COC(=O)[C@H](C)NP(=O)(Oc1ccccc1)Oc1cnc(-c2ccccc2)c(NC(=O)c2ccc(C(F)(F)F)c(-c3ccn(C)n3)c2)c1", "note": "(some centres undefined)", "values": [
      {"measurement": "Activity", "setting": "[7]", "result": "Active"},
      {"measurement": "Activity", "setting": "[8]", "result": 20, "unit": "%"},
      {"measurement": "Activity", "setting": "[9]", "result": "inactive"},
      {"measurement": "Drug metabolism", "setting": "[10]", "result": "Metabolite_Detected"},
      {"measurement": "Drug metabolism", "setting": "[11]", "result": "Metabolite_Notdetected"},
      {"measurement": "Drug metabolism", "setting": "[12]", "result": "Metabolite_Detected"}
    ]},
    {"compound": "CC(=O)OCOC(=O)c1cnc(-c2ccccc2)c(NC(=O)c2ccc(C(F)(F)F)c(-c3ccn(C)n3)c2)c1", "values": [
      {"measurement": "Activity", "setting": "[13]", "result": "Active"},
      {"measurement": "Activity", "setting": "[8]", "result": 20, "unit": "%"},
      {"measurement": "Activity", "setting": "[9]", "result": "inactive"},
      {"measurement": "ED50", "setting": "[14]", "result": 7.84, "unit": "mg/kg"},
      {"measurement": "Activity", "setting": "[15]", "result": "inactive"},
      {"measurement": "Drug uptake", "setting": "[16]", "result": "Not Active"},
      {"measurement": "Drug metabolism", "setting": "[17]", "result": "Metabolite_Detected"},
      {"measurement": "Activity", "setting": "[18]", "result": "Active"},
      {"measurement": "Activity", "setting": "[19]", "result": "Dose-Dependent Effect"},
      {"measurement": "Activity", "setting": "[20]", "result": "Dose-Dependent Effect"},
      {"measurement": "Drug metabolism", "setting": "[10]", "result": "Metabolite_Detected"},
      {"measurement": "Drug metabolism", "setting": "[11]", "result": "Metabolite_Notdetected"},
      {"measurement": "Drug metabolism", "setting": "[12]", "result": "Metabolite_Detected"}
    ]}
  ]
}
